“Also recorded” adds a separate entry of the source.
System: mouse iPS cells
Test: Tumorigenesis suppression effects of statins versus phenamil (osteoblasts from iPS cell aggregates transplanted under mouse dorsal skin)
Format: in vivo
Method: Statins are also known as compounds that promote osteoblast differentiation induction, and have the effect of differentiating iPS cells into osteoblasts. Osteoblasts obtained by inducing differentiation in the presence of an osteoblast differentiation induction promoter (phenamil 1 μM) that was not a statin (HMG-CoA reductase inhibitor) were used as a control.
Osteoblasts obtained by inducing differentiation for 30 days in the presence of a statin or phenamil were transplanted under mouse dorsal skin (both sides).

What does the source list for `NC(=Nc1ccccc1)NC(=O)c1nc(Cl)c(N)nc1N` [phenamil]?
tumor formation after transplantation (FIG. 7) (1 μM compound in osteoblast differentiation-inducing medium for 30 days, 28 days after transplantation under mouse dorsal skin): a tumor was formed; also recorded: no tumor formation suppression effect was observed; tissue other than bone tissue (tumorigenesis/teratoma) around the grafts (H&E, FIG. 8) (1 μM compound, 30 days differentiation induction, grafts extracted after 28 days): formation of tissue other than bone tissue (teratoma) was observed
